For two compounds, IC50 results are on record in ChEMBL document CHEMBL4354792, “Emerging modes-of-action in drug discovery” (Medchemcomm, 2019).

In experiment [1] the test system is Ribosome. As to the kind of experiment: Inhibition of 80s ribosome in CHOK1 cells assessed as reduction in PL-tagged PCSK9 expression incubated for over night by EFC kit method. The experiment is classed as cell-based. The settings on record: Cricetulus griseus, CHO-K1.
Experiment [2] can be described thus: Binding affinity to MMTV-PyMT mouse MALAT1 long non-coding RNA by FRET assay.

In general, IC50 refers to the concentration that inhibits the measured activity by half. Consider `COc1ccc(CCC(=O)N(c2nccc3ccccc23)[C@@H]2CCCNC2)cc1`, for which the IC50 in experiment [1] came to 4.8 µM.
Turning to `N=C(NC1CCN(Cc2ccccc2)CC1)c1ccc(-c2ccc(-c3ccc(C(=N)NC4CCN(Cc5ccccc5)CC4)cc3)o2)cc1`, in experiment [2], the IC50 was in the range of 1.3 to 2.5 µM.
